Measurements from ChEMBL document CHEMBL1201862, “PubChem BioAssay data set” (2004).
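Briefly, cells in 96-well plates were exposed to five compound concentrations for 48 h, and endpoints were estimated by linear interpolation. GI50 marks 50% less growth.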 Calls of active or inactive are those of the source. Rule as the data show it: active = GI50 up to about 1.1 µM and inactive = higher. Square brackets hold non-standard residues; d marks the D form. Peptide text beside a SMILES is read from it. * marks the point of attachment. Phe(4-NO2) = N[CH](Cc1ccc([N+](=O)[O-])cc1)C(=O)O; Boc = CC(C)(C)OC(=O)*

Key:
Assay in all cases: NCI anticancer screen, dose series, 48 h
SF-268 = system: SF-268
UO-31 = system: UO-31
PC-3 = system: PC-3
ACHN = system: ACHN
SK-MEL-28 = system: SK-MEL-28
A498 = system: A498
NCI-H23 = system: NCI-H23
CAKI-1 = system: CAKI-1
SR = system: SR
RPMI-8226 = system: RPMI-8226
T47D = system: T47D
IGROV-1 = system: IGROV-1
NCI-H522 = system: NCI-H522
CCRF-CEM = system: CCRF-CEM
HCT-116 = system: HCT-116
MDA-MB-435 = system: MDA-MB-435
K562 = system: K562
SN12C = system: SN12C
MCF7 = system: MCF7
OVCAR-3 = system: OVCAR-3

Measured: GI50

CCN1CCC(O)(c2ccc(Oc3ccc(Cl)cc3)cc2)C(C(=O)c2ccc(Oc3ccc(Cl)cc3)cc2)C1 (stereo unspecified)
inactive: SF-268 17.8 µM | UO-31 13.6 µM | PC-3 9.57 µM | ACHN 14 µM | SK-MEL-28 20.5 µM | A498 8.61 µM | NCI-H23 11.7 µM | CAKI-1 14.3 µM | SR 3.48 µM | RPMI-8226 3.37 µM | T47D 14.7 µM | IGROV-1 8.38 µM | NCI-H522 2.83 µM | CCRF-CEM 3.44 µM | HCT-116 3.78 µM | MDA-MB-435 16.4 µM | K562 5.28 µM | SN12C 13.7 µM | MCF7 5.41 µM

Cc1cccc(/N=N/c2c(C)nn(C(=O)CC(=O)Nc3ccccc3)c2C)c1
inactive: OVCAR-3 > 100 µM | SF-268 > 100 µM | UO-31 > 100 µM | PC-3 > 100 µM | ACHN > 100 µM | SK-MEL-28 > 100 µM | A498 > 100 µM | NCI-H23 > 100 µM | CAKI-1 > 100 µM | SR > 100 µM | RPMI-8226 > 100 µM | T47D > 100 µM | IGROV-1 > 100 µM | NCI-H522 > 100 µM | CCRF-CEM > 100 µM | HCT-116 > 100 µM | MDA-MB-435 > 100 µM | SN12C > 100 µM | MCF7 > 100 µM

COCC12CCC(OC)C34C5CC6(O)C(OC)CC(OC(C)=O)(C5C6OC(=O)c5ccccc5)C(C(OC)C13)C4N(C)C2 (stereo unspecified)
inactive: OVCAR-3 > 100 µM | SF-268 > 100 µM | UO-31 > 100 µM | PC-3 > 100 µM | ACHN > 100 µM | SK-MEL-28 > 100 µM | A498 > 100 µM | NCI-H23 > 100 µM | CAKI-1 > 100 µM | SR 85.3 µM | RPMI-8226 > 100 µM | T47D > 100 µM | IGROV-1 > 100 µM | NCI-H522 > 100 µM | CCRF-CEM > 100 µM | HCT-116 > 100 µM | MDA-MB-435 > 100 µM | SN12C > 100 µM | MCF7 > 100 µM

C=C1c2cc3c(cc2CC12Cc1cc4c(cc1C2=O)CCC4)CCC3 (stereo unspecified)
inactive: OVCAR-3 > 100 µM | SF-268 > 100 µM | UO-31 > 100 µM | PC-3 > 100 µM | ACHN > 100 µM | SK-MEL-28 > 100 µM | A498 > 100 µM | NCI-H23 > 100 µM | CAKI-1 > 100 µM | SR 36.1 µM | RPMI-8226 > 100 µM | T47D > 100 µM | IGROV-1 > 100 µM | NCI-H522 > 100 µM | CCRF-CEM > 100 µM | HCT-116 > 100 µM | MDA-MB-435 > 100 µM | K562 > 100 µM | MCF7 > 100 µM

CCCCn1c(C)c(C(=O)OCC)s/c1=N/Nc1nc2ccccc2nc1-c1ccccc1
inactive: OVCAR-3 72.1 µM | PC-3 30.9 µM | ACHN 78.3 µM | SK-MEL-28 > 100 µM | A498 58.5 µM | NCI-H23 92.9 µM | CAKI-1 > 100 µM | SR > 100 µM | RPMI-8226 86.3 µM | T47D 52.1 µM | IGROV-1 75.7 µM | NCI-H522 41.2 µM | CCRF-CEM > 100 µM | HCT-116 > 100 µM | MDA-MB-435 > 100 µM | K562 > 100 µM | SN12C > 100 µM | MCF7 82.4 µM

O=C(CCCCCCCCC(=O)N1C(=O)CC(=O)N(c2ccccc2)C1=S)N1C(=O)CC(=O)N(c2ccccc2)C1=S
inactive: OVCAR-3 > 100 µM | SF-268 > 100 µM | UO-31 > 100 µM | PC-3 > 100 µM | ACHN > 100 µM | A498 > 100 µM | NCI-H23 > 100 µM | CAKI-1 > 100 µM | SR > 100 µM | RPMI-8226 > 100 µM | T47D > 100 µM | NCI-H522 > 100 µM | CCRF-CEM > 100 µM | HCT-116 > 100 µM | MDA-MB-435 > 100 µM | SN12C > 100 µM | MCF7 > 100 µM

O=S(=O)([C-]([I+]c1ccccc1)S(=O)(=O)C(F)(F)C(F)(F)C(F)(F)C(F)(F)F)C(F)(F)C(F)(F)C(F)(F)C(F)(F)F
inactive: OVCAR-3 15.9 µM | SF-268 18.5 µM | UO-31 13.2 µM | PC-3 17.2 µM | ACHN 6.49 µM | SK-MEL-28 15.8 µM | A498 14.8 µM | NCI-H23 19.1 µM | CAKI-1 13.2 µM | SR 4.14 µM | RPMI-8226 3.54 µM | T47D 11.1 µM | IGROV-1 19.1 µM | NCI-H522 2.49 µM | CCRF-CEM 4.06 µM | MDA-MB-435 19.3 µM | K562 4.11 µM | MCF7 6.05 µM

N/N=C1\C(OC(=O)Nc2ccccc2)=Nc2ccccc21
inactive: OVCAR-3 11.2 µM | SF-268 36.1 µM | UO-31 12.7 µM | PC-3 15.4 µM | ACHN 15.1 µM | SK-MEL-28 60 µM | A498 17.1 µM | NCI-H23 15.1 µM | CAKI-1 14.9 µM | SR 25.6 µM | RPMI-8226 10.3 µM | T47D 10.9 µM | IGROV-1 14.8 µM | NCI-H522 13.7 µM | HCT-116 14.2 µM | MDA-MB-435 14.4 µM | K562 40.3 µM | SN12C 19.2 µM | MCF7 9.93 µM

CNC(=O)CCC(NC(=O)OC(C)(C)C)C(=O)NC(Cc1ccc([N+](=O)[O-])cc1)C(=O)NCC(=O)NC (stereo unspecified) (Boc-Glu(NHMe)-[Phe(4-NO2)]-Gly-NHMe; configuration not given here)
inactive: OVCAR-3 > 100 µM | SF-268 > 100 µM | UO-31 > 100 µM | PC-3 > 100 µM | ACHN > 100 µM | SK-MEL-28 > 100 µM | A498 68.2 µM | NCI-H23 > 100 µM | CAKI-1 > 100 µM | SR > 100 µM | RPMI-8226 > 100 µM | T47D > 100 µM | IGROV-1 > 100 µM | NCI-H522 > 100 µM | HCT-116 > 100 µM | MDA-MB-435 > 100 µM | K562 > 100 µM | SN12C > 100 µM | MCF7 > 100 µM

COC1/C=C\OC2(C)Oc3c(C)c(O)c4c(O)c(c(CN(C)C)c(O)c4c3C2=O)NC(=O)/C(C)=C\C=C/C(C)C(O)C(C)C(O)C(C)C(OC(C)=O)C1C (stereo unspecified)
inactive: OVCAR-3 15.4 µM | SF-268 33.3 µM | UO-31 39 µM | PC-3 23 µM | ACHN 61.9 µM | SK-MEL-28 31.4 µM | A498 > 100 µM | NCI-H23 16 µM | CAKI-1 57.1 µM | SR 15.7 µM | RPMI-8226 6.5 µM | T47D 29 µM | IGROV-1 33.7 µM | NCI-H522 16.2 µM | HCT-116 18.3 µM | MDA-MB-435 26.4 µM | K562 22.6 µM | SN12C 25.9 µM | MCF7 17.9 µM

C=CCn1c(S)nnc1C12CC3CC(CC(C3)C1)C2
inactive: OVCAR-3 59.4 µM | SF-268 > 100 µM | UO-31 33 µM | PC-3 32.7 µM | ACHN 54.3 µM | SK-MEL-28 > 100 µM | A498 > 100 µM | NCI-H23 94.4 µM | SR 1.51 µM | RPMI-8226 36.7 µM | T47D 32.8 µM | IGROV-1 > 100 µM | NCI-H522 25 µM | CCRF-CEM 20.1 µM | HCT-116 46.1 µM | MDA-MB-435 48.9 µM | K562 25.4 µM | SN12C > 100 µM | MCF7 42.9 µM

Cc1ccc(Nc2nc(=O)[nH]c(=O)[nH]2)cc1N
inactive: OVCAR-3 > 100 µM | SF-268 > 100 µM | PC-3 > 100 µM | ACHN > 100 µM | SK-MEL-28 32.7 µM | A498 > 100 µM | NCI-H23 > 100 µM | CAKI-1 > 100 µM | SR > 100 µM | RPMI-8226 > 100 µM | T47D > 100 µM | IGROV-1 > 100 µM | NCI-H522 > 100 µM | CCRF-CEM > 100 µM | HCT-116 > 100 µM | MDA-MB-435 26.5 µM | SN12C > 100 µM | MCF7 > 100 µM

O=C1c2ccccc2C(=O)N1c1ccc(OCCN2CCCCC2)cc1
inactive: OVCAR-3 > 100 µM | SF-268 > 100 µM | PC-3 > 100 µM | ACHN > 100 µM | SK-MEL-28 > 100 µM | A498 > 100 µM | NCI-H23 > 100 µM | CAKI-1 > 100 µM | SR > 100 µM | RPMI-8226 > 100 µM | T47D > 100 µM | IGROV-1 > 100 µM | NCI-H522 > 100 µM | CCRF-CEM > 100 µM | HCT-116 > 100 µM | MDA-MB-435 > 100 µM | K562 > 100 µM | SN12C > 100 µM | MCF7 > 100 µM

COc1ccc(Nc2nc3cc(C(F)(F)F)ccc3n3cccc23)cc1OC
inactive: OVCAR-3 20.7 µM | SF-268 26.7 µM | UO-31 22.8 µM | PC-3 10.6 µM | ACHN 17.7 µM | SK-MEL-28 28.2 µM | A498 14.7 µM | NCI-H23 17.6 µM | CAKI-1 27.9 µM | SR 9.89 µM | RPMI-8226 13.6 µM | T47D 6.37 µM | IGROV-1 25.5 µM | NCI-H522 16 µM | CCRF-CEM 10.7 µM | HCT-116 12.1 µM | MDA-MB-435 15.7 µM | K562 9.04 µM | MCF7 16.6 µM
